The EC50 is the concentration needed to bring the measured effect to its halfway point.

The values below come from patent US20240398812A1 (Caraway Therapeutics, Inc., priority 2021, published 2024).

Format in all cases: cell-based
The target in one test is T1, TRPML3 (Homo sapiens, UniProt Q8TDD5).
T1 construct: expressed in transfected cells
T1 sequence (Q8TDD5 1-553): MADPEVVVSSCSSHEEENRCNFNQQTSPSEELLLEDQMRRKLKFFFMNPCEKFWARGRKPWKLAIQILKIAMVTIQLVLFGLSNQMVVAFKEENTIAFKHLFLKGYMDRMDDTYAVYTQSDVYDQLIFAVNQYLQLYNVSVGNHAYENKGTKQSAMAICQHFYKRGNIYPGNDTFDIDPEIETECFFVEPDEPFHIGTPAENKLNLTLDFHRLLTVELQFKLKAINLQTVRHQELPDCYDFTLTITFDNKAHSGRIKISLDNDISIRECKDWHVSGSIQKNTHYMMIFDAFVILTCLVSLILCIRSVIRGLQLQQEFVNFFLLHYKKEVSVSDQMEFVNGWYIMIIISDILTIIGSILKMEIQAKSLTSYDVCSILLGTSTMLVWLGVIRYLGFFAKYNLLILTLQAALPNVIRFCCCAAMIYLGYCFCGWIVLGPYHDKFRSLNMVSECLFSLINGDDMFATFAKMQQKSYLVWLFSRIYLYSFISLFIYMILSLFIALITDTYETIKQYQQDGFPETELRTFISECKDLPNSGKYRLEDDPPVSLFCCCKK
As to the kind of experiment: Fluorescent TRPML3 assay (as for TRPML1). In outline: (§1)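 EC50 came from non-linear regression of percent activity, set against on-plate positive and negative controls, using Fluo4 fluorescence (ex 480, em 540 nm). Compounds ran in triplicate from 6 nM to 20 µM final in half-log steps. Doxycycline-induced (0.5 ug/mL) HEK-293 Trex cells expressing surface-directed mutant channel were in 10 mM calcium Ringer's.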

The next test addresses human TRPML1 (Homo sapiens, UniProt Q9GZU1). Briefly: Fluorescent TRPML1 assay (Fluo4-AM calcium fluorescence, HEK-293 Trex cells). In outline:
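Agonist EC50 from non-linear regression of percent activity versus on-plate controls, calcium signal read at 480/540 nm. Compounds spanned 6 nM–20 μM final in triplicate. Cells: doxycycline-induced HEK-293 Trex with cell-surface human TRPML1 mutant, Fluo4-AM loaded, in Ringer's containing 10 mM calcium.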

Another test deals with T2, TRPML2 (Homo sapiens, UniProt Q8IZK6).
T2 construct: expressed in transfected cells
T2 sequence (Q8IZK6 1-566): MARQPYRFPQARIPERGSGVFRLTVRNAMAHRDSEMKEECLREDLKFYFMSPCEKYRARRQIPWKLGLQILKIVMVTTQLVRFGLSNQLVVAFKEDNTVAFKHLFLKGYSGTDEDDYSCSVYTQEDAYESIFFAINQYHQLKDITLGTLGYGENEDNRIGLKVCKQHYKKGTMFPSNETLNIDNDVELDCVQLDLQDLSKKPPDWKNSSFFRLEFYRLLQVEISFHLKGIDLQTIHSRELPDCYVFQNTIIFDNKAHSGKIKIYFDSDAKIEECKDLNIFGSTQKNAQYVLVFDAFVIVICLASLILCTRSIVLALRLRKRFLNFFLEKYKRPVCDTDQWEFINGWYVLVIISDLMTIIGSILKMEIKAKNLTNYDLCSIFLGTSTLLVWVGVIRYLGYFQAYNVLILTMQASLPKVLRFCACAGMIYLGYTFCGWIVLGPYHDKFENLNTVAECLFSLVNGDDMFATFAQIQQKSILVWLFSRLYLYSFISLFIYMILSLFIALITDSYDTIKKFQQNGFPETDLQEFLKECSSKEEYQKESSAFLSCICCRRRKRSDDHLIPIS
Briefly: Fluorescent TRPML2 assay (as for TRPML1). The method, boiled down:
as §1

Sequence of human TRPML1 (Q9GZU1 whole entry L15A/L16A/L577A/L578A, form open): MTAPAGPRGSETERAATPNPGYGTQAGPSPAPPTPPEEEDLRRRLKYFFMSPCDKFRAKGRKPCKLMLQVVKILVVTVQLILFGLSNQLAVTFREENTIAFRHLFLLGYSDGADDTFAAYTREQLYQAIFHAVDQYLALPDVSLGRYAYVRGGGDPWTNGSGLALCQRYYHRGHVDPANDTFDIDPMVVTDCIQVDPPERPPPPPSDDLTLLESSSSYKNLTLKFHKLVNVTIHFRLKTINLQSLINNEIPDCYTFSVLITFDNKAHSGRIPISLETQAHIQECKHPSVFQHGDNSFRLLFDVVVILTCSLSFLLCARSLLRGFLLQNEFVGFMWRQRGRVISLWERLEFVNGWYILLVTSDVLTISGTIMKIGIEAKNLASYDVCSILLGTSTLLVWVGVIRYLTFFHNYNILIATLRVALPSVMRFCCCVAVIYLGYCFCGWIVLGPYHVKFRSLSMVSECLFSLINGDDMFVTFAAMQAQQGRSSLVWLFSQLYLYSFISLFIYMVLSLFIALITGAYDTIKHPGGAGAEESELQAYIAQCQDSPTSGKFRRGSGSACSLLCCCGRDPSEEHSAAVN

For the compound `Cc1nccnc1-c1cn(-c2cc(C#N)ccn2)c2ncnc(N3C[C@@H](C)N(C(=O)CC(C)C)C[C@@H]3C)c12` [Compound 173, 2-(4-((2S,5R)-2,5-dimethyl-4-(3-methylbutanoyl)piperazin-1-yl)-5-(3-methylpyrazin-2-yl)-7H-pyrrolo[2,3-d]pyrimidin-7-yl)isonicotinonitrile], the EC50 on TRPML3 (Table 3, compounds 101-177) is more than 2 µM; on human TRPML1 (Table 3, compounds 101-177), 0.1 to 0.5 µM; on TRPML2 (Table 3, compounds 101-177), more than 2 µM.

Regarding `CC(C)(O)C(=O)N1CCN(c2ncnc3c2c(-c2ccccc2F)cn3-c2cc(C#N)ccn2)C(C)(C)C1` [Compound 170, 2-(5-(2-fluorophenyl)-4-(4-(2-hydroxy-2-methylpropanoyl)-2,2-dimethylpiperazin-1-yl)-7H-pyrrolo[2,3-d]pyrimidin-7-yl)isonicotinonitrile], the EC50 is less than 0.1 µM on TRPML3 (Table 3, compounds 101-177); less than 0.1 µM at human TRPML1 (Table 3, compounds 101-177); 0.1 to 0.5 µM on TRPML2 (Table 3, compounds 101-177).

Regarding `CCCN(CC)c1cn(-c2cc(C#N)ccn2)c2ncnc(N3CCN(C(=O)CC(C)(C)C)C[C@@H]3C)c12` [Compound 166, (S)-2-(4-(4-(3,3-dimethylbutanoyl)-2-methylpiperazin-1-yl)-5-(ethyl(propyl)amino)-7H-pyrrolo [2,3-d]pyrimidin-7-yl)isonicotinonitrile], the EC50 on TRPML3 (Table 3, compounds 101-177) is less than 0.1 µM; on human TRPML1 (Table 3, compounds 101-177), less than 0.1 µM; on TRPML2 (Table 3, compounds 101-177), 0.1 to 0.5 µM.

Turning to `C[C@@H]1CN(c2ncnc3c2c(N2CCC2)cn3-c2cc(C#N)ccn2)[C@@H](C)CN1C(=O)C(C)(C)C` [Compound 276, 2-(5-(azetidin-1-yl)-4-((2S,5R)-2,5-dimethyl-4-pivaloylpiperazin-1-yl)-7H-pyrrolo[2,3-d]pyrimidin-7-yl)isonicotinonitrile], the EC50 on TRPML3 (Table 3, compounds 201-283) is less than 0.1 µM; at human TRPML1 (Table 3, compounds 201-283), less than 0.1 µM; on TRPML2 (Table 3, compounds 201-283), 0.1 to 0.5 µM.

On to `C[C@@H]1CN(c2ncnc3c2c(C2CC2)cn3-c2cccc(Cl)c2)[C@@H](C)CN1C(=O)C(C)(C)C` [Compound 206, 1-((2R,5S)-4-(7-(3-chlorophenyl)-5-cyclopropyl-7H-pyrrolo[2,3-d]pyrimidin-4-yl)-2,5-dimethylpiperazin-1-yl)-2,2-dimethylpropan-1-one], for which the EC50 on TRPML3 (Table 3, compounds 201-283) was less than 0.1 µM; at human TRPML1 (Table 3, compounds 201-283) it was less than 0.1 µM; on TRPML2 (Table 3, compounds 201-283), 0.1 to 0.5 µM.

With `C[C@H]1CN(C(=O)C2(F)CC2)CCN1c1ncnc2c1c(-c1ccccc1F)cn2-c1cc(C#N)ccn1` [Compound 115, (S)-2-(4-(4-(1-fluorocyclopropane-1-carbonyl)-2-methylpiperazin-1-yl)-5-(2-fluorophenyl)-7H-pyrrolo[2,3-d]pyrimidin-7-yl)isonicotinonitrile], the EC50 at TRPML3 (Table 3, compounds 101-177) is less than 0.1 µM; on human TRPML1 (Table 3, compounds 101-177) it was less than 0.1 µM; on TRPML2 (Table 3, compounds 101-177) it was less than 0.1 µM.

Regarding `COC(C)(C)C(=O)N1CCN(c2ncnc3c2c(C2CC2)cn3-c2cc(C#N)ccn2)C[C@H]1C` [Compound 265, (R)-2-(5-cyclopropyl-4-(4-(2-methoxy-2-methylpropanoyl)-3-methylpiperazin-1-yl)-7H-pyrrolo [2,3-d]pyrimidin-7-yl)isonicotinonitrile], the EC50 on TRPML3 (Table 3, compounds 201-283) is less than 0.1 µM; on human TRPML1 (Table 3, compounds 201-283), less than 0.1 µM; at TRPML2 (Table 3, compounds 201-283), 0.1 to 0.5 µM.

Turning to `COC(C)(C)C(=O)N1C[C@H](C)N(c2ncnc3c2c(N2CCC2)cn3-c2cc(C#N)ccn2)C[C@H]1C` [Compound 268, 2-(5-(azetidin-1-yl)-4-((2S,5R)-4-(2-methoxy-2-methylpropanoyl)-2,5-dimethylpiperazin-1-yl)-7H-pyrrolo[2,3-d]pyrimidin-7-yl)isonicotinonitrile], the EC50 on TRPML3 (Table 3, compounds 201-283) is less than 0.1 µM; at human TRPML1 (Table 3, compounds 201-283) it was less than 0.1 µM; on TRPML2 (Table 3, compounds 201-283), 0.5 to 2 µM.

Take `C[C@H]1CN(C(=O)C(C)(C)C)CCN1c1ncnc2c1c(-c1ccccc1)cn2-c1cc(C#N)ccn1` [Compound 120, (S)-2-(4-(2-methyl-4-pivaloylpiperazin-1-yl)-5-phenyl-7H-pyrrolo[2,3-d]pyrimidin-7-yl)isonicotinonitrile]: the EC50 at TRPML3 (Table 3, compounds 101-177) was less than 0.1 µM; on human TRPML1 (Table 3, compounds 101-177) it was less than 0.1 µM; on TRPML2 (Table 3, compounds 101-177), 0.1 to 0.5 µM.

As for `C[C@@H]1CN(c2nccc3c2c(C2CC2)cn3-c2cccc(F)c2)[C@@H](C)CN1C(=O)C(C)(C)C` [Compound 229, 1-((2R,5S)-4-(3-cyclopropyl-1-(3-fluorophenyl)-1H-pyrrolo[3,2-c]pyridin-4-yl)-2,5-dimethylpiperazin-1-yl)-2,2-dimethylpropan-1-one], the EC50 at TRPML3 (Table 3, compounds 201-283) was less than 0.1 µM; on human TRPML1 (Table 3, compounds 201-283), less than 0.1 µM; at TRPML2 (Table 3, compounds 201-283), more than 2 µM.

For the compound `C[C@H]1CN(C(=O)CC(C)(C)C)CCN1c1ncnc2c1c(-c1ccccc1F)cn2-c1cc(C#N)ccn1` [Compound 133, (S)-2-(4-(4-(3,3-dimethylbutanoyl)-2-methylpiperazin-1-yl)-5-(2-fluorophenyl)-7H-pyrrolo[2,3-d]pyrimidin-7-yl)isonicotinonitrile], the concentration for a half-maximal effect (EC50) at TRPML3 (Table 3, compounds 101-177) is less than 0.1 µM; on human TRPML1 (Table 3, compounds 101-177), less than 0.1 µM; on TRPML2 (Table 3, compounds 101-177), 0.1 to 0.5 µM.

Consider `CC(C)C(=O)N1CCN(c2ncnc3c2c(N2CCCC2)cn3-c2cc(C#N)ccn2)[C@@H](C)C1` [Compound 144, (S)-2-(4-(4-isobutyryl-2-methylpiperazin-1-yl)-5-(pyrrolidin-1-yl)-7H-pyrrolo[2,3-d]pyrimidin-7-yl)isonicotinonitrile], for which the EC50 is 0.1 to 0.5 µM on TRPML3 (Table 3, compounds 101-177); less than 0.1 µM on human TRPML1 (Table 3, compounds 101-177); 0.1 to 0.5 µM on TRPML2 (Table 3, compounds 101-177).

Turning to `C[C@@H]1CN(c2cn(-c3cc(C#N)ccn3)c3ncnc(N4CCN(C(=O)CC(C)(C)C)C[C@@H]4C)c23)CCO1` [Compound 165, 2-(4-((S)-4-(3,3-dimethylbutanoyl)-2-methylpiperazin-1-yl)-5-((R)-2-methylmorpholino)-7H-pyrrolo[2,3-d]pyrimidin-7-yl)isonicotinonitrile], the EC50 on TRPML3 (Table 3, compounds 101-177) was less than 0.1 µM; on human TRPML1 (Table 3, compounds 101-177), less than 0.1 µM; at TRPML2 (Table 3, compounds 101-177), 0.1 to 0.5 µM.

For `COC(C)(C)C(=O)N1C[C@H](C)N(c2ncnc3c2c(C2CC2)cn3-c2cccc(F)c2)C[C@H]1C` [Compound 246, 1-((2R,5S)-4-(5-cyclopropyl-7-(3-fluorophenyl)-7H-pyrrolo[2,3-d]pyrimidin-4-yl)-2,5-dimethylpiperazin-1-yl)-2-methoxy-2-methylpropan-1-one], the EC50 was in the range of 0.1 to 0.5 µM on TRPML3 (Table 3, compounds 201-283); 0.1 to 0.5 µM on human TRPML1 (Table 3, compounds 201-283); 0.5 to 2 µM at TRPML2 (Table 3, compounds 201-283).

For `C[C@@H]1CN(c2ncnc3c2c(C2CCC2)cn3-c2cc(F)cc(F)c2)[C@@H](C)CN1C(=O)C(C)(C)C` [Compound 255, 1-((2R,5S)-4-(5-cyclobutyl-7-(3,5-difluorophenyl)-7H-pyrrolo[2,3-d]pyrimidin-4-yl)-2,5-dimethylpiperazin-1-yl)-2,2-dimethylpropan-1-one], the EC50 is 0.5 to 2 µM on TRPML3 (Table 3, compounds 201-283); 0.5 to 2 µM at human TRPML1 (Table 3, compounds 201-283); more than 2 µM at TRPML2 (Table 3, compounds 201-283).

For `C[C@H]1CN(C(=O)C2(C)CC2)CCN1c1ncnc2c1c(-c1ccccc1)cn2-c1cc(C#N)ccn1` [Compound 128, (S)-2-(4-(2-methyl-4-(1-methylcyclopropane-1-carbonyl)piperazin-1-yl)-5-phenyl-7H-pyrrolo[2,3-d]pyrimidin-7-yl)isonicotinonitrile], the EC50 on TRPML3 (Table 3, compounds 101-177) was less than 0.1 µM; on human TRPML1 (Table 3, compounds 101-177) it was less than 0.1 µM; on TRPML2 (Table 3, compounds 101-177), less than 0.1 µM.

`CC(C)C(=O)N1C[C@@H](C)N(c2ncnc3c2c(-c2ccccc2F)cn3-c2cc(C#N)ccn2)C[C@@H]1C` [Compound 201, 2-(5-(2-fluorophenyl)-4-((2R,5S)-4-isobutyryl-2,5-dimethylpiperazin-1-yl)-7H-pyrrolo[2,3-d]pyrimidin-7-yl)isonicotinonitrile]: the EC50 at TRPML3 (Table 3, compounds 201-283) lay within 0.1 to 0.5 µM; at human TRPML1 (Table 3, compounds 201-283), 0.5 to 2 µM; on TRPML2 (Table 3, compounds 201-283), 0.1 to 0.5 µM.

As to `CC(C)C(=O)N1CCN(c2ncnc3c2c(-c2ccccc2)cn3-c2cc(C#N)ccn2)[C@@H](C)C1` [Compound 118, (S)-2-(4-(4-isobutyryl-2-methylpiperazin-1-yl)-5-phenyl-7H-pyrrolo[2,3-d]pyrimidin-7-yl)isonicotinonitrile], the EC50 on TRPML3 (Table 3, compounds 101-177) was less than 0.1 µM; at human TRPML1 (Table 3, compounds 101-177) it was less than 0.1 µM; on TRPML2 (Table 3, compounds 101-177), 0.5 to 2 µM.
